Experimental data as given in US9056081B2, “Compositions for treating pseudomonas infection” (Universitätsklinikum Hamburg-Eppendorf, priority 2009, dated 2015).
Entries after “also recorded” stand apart in the source; their conditions may differ. Where two headings read alike, the source gives them in different places. Ends that are not written are not given here.

What was measured:
PA-IIL [1] = biological target: T1, PA-IIL (Pseudomonas aeruginosa, UniProt Q9HYN5); assay type: cell-based; details: 0.121-0.484 mM peptide co-incubated with 10 μg/ml PA-IIL, 24 h
T1 sequence (Q9HYN5 entry or part of it): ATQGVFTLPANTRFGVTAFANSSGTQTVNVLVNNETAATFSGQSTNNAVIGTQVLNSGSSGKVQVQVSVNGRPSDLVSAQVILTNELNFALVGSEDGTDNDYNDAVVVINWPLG

PA-IL and PA-IIL = test: CBF assay: simultaneous application of PA-IL and PA-IIL; assay type: cell-based, Pseudomonas aeruginosa
Experimental: Experiments were carried out on human nasal conchae, obtained during routine surgery from the ENT Hospital of the University Medical Center Hamburg-Eppendorf, Hamburg, Germany. […]
The aim of this experiment was to compare the efficiency of different sugar solutions and peptides to block PA-IL and PA-IIL binding to cilia in tissue sections and in vitro airway cultures by measuring their ciliary beat frequency (CBF). […] The signals were measured and analysed by a computer system incorporating a special purpose MPV-CBF software (Software-Entwicklung Radmann, Solms, Germany). The CBF was calculated by collecting data from 512 readings (10 s) and by performing Fourier analysis (Mewe et al. 2005). Five of these Fourier transforms taken per nasal conchae piece were measured.
The influence of monosaccharides and several peptides (obtained from Centre for Molecular Neurobiology, Hamburg, Germany) alone and in combination with PA-IL or PA-IIL on CBF was also investigated. The monosaccharides (0.2 M) and peptides (0.968 mM) were pre-incubated with 10 μg/ml PA-IL and 10 μg/ml PA-IIL, respectively, for 30 min at room temperature, at which they were agitated the for whole time and then added to the medium and the CBF was monitored over a 24 h period. […]

PA-IL = PA-IL (Pseudomonas aeruginosa, UniProt Q05097); test: cell-based; assay type: cell-based
Sequence of PA-IL (Q05097 whole entry): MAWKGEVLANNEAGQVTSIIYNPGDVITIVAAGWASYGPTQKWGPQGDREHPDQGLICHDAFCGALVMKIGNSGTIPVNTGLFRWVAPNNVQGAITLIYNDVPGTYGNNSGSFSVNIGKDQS
Experimental: (§1) Experiments were carried out on human nasal conchae, obtained during routine surgery from the ENT Hospital of the University Medical Center Hamburg-Eppendorf, Hamburg, Germany. For the measurement of CBF, small pieces of nasal mucosa were punched out of the nasal conchae by a special biopsy punch (Stiefel Laboratorium GmbH, Offenbach, Germany) (4-6 pieces per nasal conchae) and transferred to Petri dishes (Greiner Bio-One, Kremsmünster, Austria) containing RPMI-1640 and L-Glutamine medium (Gibco, Karlsruhe, Germany) supplemented with 10% fetal calf serum (Gibco, Karlsruhe, Germany), 1% Penicillin-Streptomycin (10 000 U/ml, Gibco, Karlsruhe, Germany) and 0.9% Amphotericin B (250 UG/ml, Gibco, Karlsruhe, Germany) as a fungicide. The specimens were maintained under standard cell culture conditions at 37° C. in 5% CO2 for up to two weeks.
(§2) The aim of this experiment was to compare the efficiency of different sugar solutions and peptides to block PA-IL and PA-IIL binding to cilia in tissue sections and in vitro airway cultures by measuring their ciliary beat frequency (CBF). Actively beating ciliated cells were viewed trough phase-contrast optics of a Leica DM IRB HC inverted microscope (Leica, Bensheim, Germany) placed on a Micro-g vibration isolation table (TMC, Peabody, Mass.). During the experiments, the cultured tissue samples were maintained at a constant temperature (35±0.5° C.) by a thermostatically controlled heated stage. The signals were measured and analysed by a computer system incorporating a special purpose MPV-CBF software (Software-Entwicklung Radmann, Solms, Germany). The CBF was calculated by collecting data from 512 readings (10 s) and by performing Fourier analysis (Mewe et al. 2005). Five of these Fourier transforms taken per nasal conchae piece were measured.
The influence of monosaccharides and several peptides (obtained from Centre for Molecular Neurobiology, Hamburg, Germany) alone and in combination with PA-IL or PA-IIL on CBF was also investigated. The monosaccharides ([…]) were pre-incubated with 10 μg/ml PA-IL and 10 μg/ml PA-IIL, respectively, for 30 min at room temperature, at which they were agitated the for whole time and then added to the medium and the CBF was monitored over a 24 h period. Measurement was carried out after 0, 1, 2, 3, 5, 8, 24 h incubation. Negative controls were maintained in medium with no additions made. Positive controls were maintained in medium with PA-IL or PA-IIL, respectively.
In CBF analysis, the influence of monosaccharides (D-galactose and L(−)-fucose) and the HNK-1 mimetic peptide pHNK-1 alone and in combination with PA-IL on CBF was investigated.

PA-IIL [2] = biological target: T1, PA-IIL; test: cell-based; assay type: cell-based
Experimental: as §1, §2
The influence of monosaccharides and several peptides (obtained from Centre for Molecular Neurobiology, Hamburg, Germany) alone and in combination with PA-IL or PA-IIL on CBF was also investigated. The monosaccharides (0.2 M) and peptides (0.968 mM) were pre-incubated with 10 μg/ml PA-IL and 10 μg/ml PA-IIL, respectively, for 30 min at room temperature, at which they were agitated the for whole time and then added to the medium and the CBF was monitored over a 24 h period. Measurement was carried out after 0, 1, 2, 3, 5, 8, 24 h incubation. Negative controls were maintained in medium with no additions made. Positive controls were maintained in medium with PA-IL or PA-IIL, respectively.
For CBF analysis monosaccharides (D-galactose and L(−)-fucose) and peptides were pre-incubated with PA-IIL and the CBF was determined.

human airway cilia = test: Ciliary beat frequency (CBF) of human nasal mucosa, substances alone without lectin; assay type: cell-based; details: no lectin, over 24 h; for effect on the ciliary beat frequency (CBF), monosaccharide alone: 0.2 M monosaccharide
[3] = Storage stability of monosaccharide solutions (data not shown); assay type: physicochemical; details: stored at room temperature or at 4° C. dissolved in an aqueous solution
[4] = 0.121 mM peptide co-incubated with 10 μg/ml PA-IL, 24 h
[5] = 0.242 mM peptide co-incubated with 10 μg/ml PA-IL, 24 h
[6] = 0.2 M monosaccharide co-incubated with 10 μg/ml PA-IL, 24 h
[7] = 0.2 M monosaccharide co-incubated with 10 μg/ml PA-IIL, 24 h

Molecule	effect on the CBF-decreasing effect of PA-IIL (PA-IIL [1])	effect on the decrease of CBF after simultaneous application of PA-IL and PA-IIL (PA-IL and PA-IIL)	IC50 (PA-IL) [µM]	effect on the CBF-decreasing effect of PA-IL (PA-IL)	effect on the CBF-decreasing effect of PA-IL (PA-IL; [4])	effect on the CBF-decreasing effect of PA-IL (PA-IL; [5])	IC50 (PA-IIL [2]) [µM]	effect on the CBF-decreasing effect of PA-IIL (PA-IIL [2])	effect on the ciliary beat frequency (CBF), peptide alone (human airway cilia; 0.968 mM peptide)	effect on the CBF-decreasing effect of PA-IL (PA-IL; listed as scrambled version of the peptide pHNK-1)	stability and inhibitory potency of the solution on storage [3]	effect on the CBF-decreasing effect of PA-IL (PA-IL; [6])	effect on the CBF-decreasing effect of PA-IIL (PA-IIL [2]; [7])	effect on the ciliary beat frequency (CBF), monosaccharide alone (human airway cilia)
FLHTRLFV [pHNK-1]	resulted in a continuous decrease of the CBF within 24 h	caused an inhibition of lectin induced suppression of CBF; also recorded: could be inhibited	484	blocked the CBF-decreasing effect of PA-IL; also recorded: reduced the CBF-decreasing effect of the PA lectin; also recorded: could be reduced	resulted in a continuous decrease of the CBF within 24 h	resulted in a continuous decrease of the CBF within 24 h	968	inhibited the CBF-decreasing effect of PA-IIL; also recorded: reduced the CBF-decreasing effect of the PA lectin; also recorded: blocked	had no effect on the CBF					
TVFHFRLL [sHNK-1]				also reduced the CBF-decreasing effect of PA-IL; also recorded: reduced the CBF-decreasing effect of the PA lectin; also recorded: resulted in a continuous decrease of the CBF within 24 h	resulted in a continuous decrease of the CBF within 24 h	resulted in a continuous decrease of the CBF within 24 h		resulted in a continuous decrease of the CBF within 24 h; also recorded: none of the other tested peptides (sHNK-1, pLeX, sLeX) had any consequence; also recorded: had no effect		also reduced the CBF-decreasing effect of PA-IL				
O=C[C@H](O)[C@@H](O)[C@@H](O)[C@H](O)CO [D-galactose, reference compound]											not stable and loose their inhibitory potency	reduced the CBF-decreasing effect of the PA lectin; also recorded: could be effectively reduced	no inhibition could be achieved; also recorded: resulted in a decline of the CBF within 24 h; also recorded: did not inhibit	had no effect on the CBF
C[C@H](O)[C@@H](O)[C@@H](O)[C@H](O)C=O [L(−)-fucose, reference compound]											not stable and loose their inhibitory potency	resulted in a continuous decrease of the CBF within 24 h; also recorded: did not inhibit	could be reduced; also recorded: reduced the CBF-decreasing effect of the PA lectin	had no effect on the CBF
